Key:
Type in all cases: cell-based
Details in all cases: 24 h incubation, visual reading
[1] = system: Staphylococcus aureus MRSA ATCC 43300; assay: MIC assay, S. aureus MRSA ATCC 43300
Procedure, shortened: (§1)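 Overnight MHB cultures at 37° C were diluted 40-fold and grown 2-3 hrs to mid-log, then added at 5×10e5 CFU/mL to twofold compound dilutions (8 to 0.003 μg/ml). Plates were incubated 24 h at 37° C and MIC scored by eye.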

[2] = system: Streptococcus pneumoniae MDR ATCC 700677; assay: MIC assay, S. pneumoniae MDR ATCC 700677
Procedure, shortened: as §1

[3] = system: Enterococcus faecium MDR Van A ATCC 51559; assay: MIC assay, E. faecium MDR Van A ATCC 51559
Procedure, shortened: as §1

Structure (SMILES) | Minimum Inhibitory Concentration (MIC) Staph. aureus ATCC43300 [1] | Minimum Inhibitory Concentration (MIC) S. pneumoniae ATCC 700677 [2] | Minimum Inhibitory Concentration (MIC) E. faecium ATCC51559 [3]
CNC(=O)C(CCCCNC(=O)C1NC(=O)C2NC(=O)C(NC(=O)C3NC(=O)C(CC(N)=O)NC(=O)C(NC(=O)C(CC(C)C)NC)C(O)c4ccc(c(Cl)c4)Oc4cc3cc(c4OC3OC(CO)C(O)C(O)C3OC3CC(C)(N)C(O)C(C)O3)Oc3ccc(cc3Cl)C2O)c2ccc(O)c(c2)-c2c(O)cc(O)cc21)NC(=O)C(CCCCN)NC(=O)C(CCCCNC(=O)CCCOc1ccccc1)NC(=O)CCCOc1ccccc1 (stereo not drawn) [MCC_000506] | xxx (xxx = 0.1-<1) | xxx (xxx = 0.1-<1) | x (x = >4)
CNC(=O)C(CCCCNC(=O)C1NC(=O)C2NC(=O)C(NC(=O)C3NC(=O)C(CC(N)=O)NC(=O)C(NC(=O)C(CC(C)C)NC)C(O)c4ccc(c(Cl)c4)Oc4cc3cc(c4OC3OC(CO)C(O)C(O)C3OC3CC(C)(N)C(O)C(C)O3)Oc3ccc(cc3Cl)C2O)c2ccc(O)c(c2)-c2c(O)cc(O)cc21)NC(=O)C(CCCCN)NC(=O)C(CCCCN)NC(=O)CCCCCc1ccccc1 (stereo not drawn) [MCC_000507] | xxx (xxx = 0.1-<1) | xxx (xxx = 0.1-<1) | x (x = >4)
CNC(=O)C(CCCCNC(=O)C1NC(=O)C2NC(=O)C(NC(=O)C3NC(=O)C(CC(N)=O)NC(=O)C(NC(=O)C(CC(C)C)NC)C(O)c4ccc(c(Cl)c4)Oc4cc3cc(c4OC3OC(CO)C(O)C(O)C3OC3CC(C)(N)C(O)C(C)O3)Oc3ccc(cc3Cl)C2O)c2ccc(O)c(c2)-c2c(O)cc(O)cc21)NC(=O)C(CCCCN)NC(=O)C(CCCCNC(=O)CCCCCc1ccccc1)NC(=O)CCCCCc1ccccc1 (stereo not drawn) [MCC_000508] | xxxxx (xxxxx = <0.01) | xxxxx (xxxxx = <0.01) | xx (xx = 1-4)
CNC(=O)C(CCCCNC(=O)C1NC(=O)C2NC(=O)C(NC(=O)C3NC(=O)C(CC(N)=O)NC(=O)C(NC(=O)C(CC(C)C)NC)C(O)c4ccc(c(Cl)c4)Oc4cc3cc(c4OC3OC(CO)C(O)C(O)C3OC3CC(C)(N)C(O)C(C)O3)Oc3ccc(cc3Cl)C2O)c2ccc(O)c(c2)-c2c(O)cc(O)cc21)NC(=O)C(CCCCN)NC(=O)C(CCCCN)NC(=O)CCCCCCCCc1ccccc1 (stereo not drawn) [MCC_000509] | xxxx (xxxx = 0.01-<0.1) | xxxxx (xxxxx = <0.01) | xx (xx = 1-4)
CNC(=O)C(CCCCNC(=O)C1NC(=O)C2NC(=O)C(NC(=O)C3NC(=O)C(CC(N)=O)NC(=O)C(NC(=O)C(CC(C)C)NC)C(O)c4ccc(c(Cl)c4)Oc4cc3cc(c4OC3OC(CO)C(O)C(O)C3OC3CC(C)(N)C(O)C(C)O3)Oc3ccc(cc3Cl)C2O)c2ccc(O)c(c2)-c2c(O)cc(O)cc21)NC(=O)C(CCCCN)NC(=O)C(CCCCN)NC(=O)CCCCCCCCCCCc1ccccc1 (stereo not drawn) [MCC_000511] | xxxxx (xxxxx = <0.01) | xxxxx (xxxxx = <0.01) | xxx (xxx = 0.1-<1)
CNC(=O)C(CCCCNC(=O)C1NC(=O)C2NC(=O)C(NC(=O)C3NC(=O)C(CC(N)=O)NC(=O)C(NC(=O)C(CC(C)C)NC)C(O)c4ccc(c(Cl)c4)Oc4cc3cc(c4OC3OC(CO)C(O)C(O)C3OC3CC(C)(N)C(O)C(C)O3)Oc3ccc(cc3Cl)C2O)c2ccc(O)c(c2)-c2c(O)cc(O)cc21)NC(=O)C(CCCCN)NC(=O)C(CCCCN)NC(=O)c1ccc(OCc2ccccc2)cc1 (stereo not drawn) [MCC_000518] | xxx (xxx = 0.1-<1) | xxx (xxx = 0.1-<1) | x (x = >4)

Further lines, results first:

Minimum Inhibitory Concentration (MIC) Staph. aureus ATCC43300 [1] | Minimum Inhibitory Concentration (MIC) S. pneumoniae ATCC 700677 [2] | Minimum Inhibitory Concentration (MIC) E. faecium ATCC51559 [3] | Structure (SMILES)
xxx (xxx = 0.1-<1) | xx (xx = 1-4) | x (x = >4) | CNC(=O)C(CCCCNC(=O)C1NC(=O)C2NC(=O)C(NC(=O)C3NC(=O)C(CC(N)=O)NC(=O)C(NC(=O)C(CC(C)C)NC)C(O)c4ccc(c(Cl)c4)Oc4cc3cc(c4OC3OC(CO)C(O)C(O)C3OC3CC(C)(N)C(O)C(C)O3)Oc3ccc(cc3Cl)C2O)c2ccc(O)c(c2)-c2c(O)cc(O)cc21)NC(=O)C(CCCCN)NC(=O)C(CCCCN)NC(=O)CCCOc1ccccc1 (stereo not drawn) [MCC_000505]
xxxx (xxxx = 0.01-<0.1) | xxxxxx | xx (xx = 1-4) | CNC(=O)C(CCCCNC(=O)C1NC(=O)C2NC(=O)C(NC(=O)C3NC(=O)C(CC(N)=O)NC(=O)C(NC(=O)C(CC(C)C)NC)C(O)c4ccc(c(Cl)c4)Oc4cc3cc(c4OC3OC(CO)C(O)C(O)C3OC3CC(C)(N)C(O)C(C)O3)Oc3ccc(cc3Cl)C2O)c2ccc(O)c(c2)-c2c(O)cc(O)cc21)NC(=O)C(CCCCN)NC(=O)C(CCCCN)NC(=O)CCCCCCCCCc1ccccc1 (stereo not drawn) [MCC_000510]
xxx (xxx = 0.1-<1) | xxx (xxx = 0.1-<1) | x (x = >4) | CNC(=O)C(CCCCNC(=O)C1NC(=O)C2NC(=O)C(NC(=O)C3NC(=O)C(CC(N)=O)NC(=O)C(NC(=O)C(CC(C)C)NC)C(O)c4ccc(c(Cl)c4)Oc4cc3cc(c4OC3OC(CO)C(O)C(O)C3OC3CC(C)(N)C(O)C(C)O3)Oc3ccc(cc3Cl)C2O)c2ccc(O)c(c2)-c2c(O)cc(O)cc21)NC(=O)C(CCCCN)NC(=O)C(CCCCN)NC(=O)Cc1ccc(-c2ccccc2)cc1 (stereo not drawn) [MCC_000512]
xxx (xxx = 0.1-<1) | xxx (xxx = 0.1-<1) | x (x = >4) | CNC(=O)C(CCCCNC(=O)C1NC(=O)C2NC(=O)C(NC(=O)C3NC(=O)C(CC(N)=O)NC(=O)C(NC(=O)C(CC(C)C)NC)C(O)c4ccc(c(Cl)c4)Oc4cc3cc(c4OC3OC(CO)C(O)C(O)C3OC3CC(C)(N)C(O)C(C)O3)Oc3ccc(cc3Cl)C2O)c2ccc(O)c(c2)-c2c(O)cc(O)cc21)NC(=O)C(CCCCN)NC(=O)C(CCCCN)NC(=O)c1ccc(Oc2ccc(F)cc2)cc1 (stereo not drawn) [MCC_000514]
xxxxxx | xxxxx (xxxxx = <0.01) | x (x = >4) | CNC(=O)C(CCCCNC(=O)C1NC(=O)C2NC(=O)C(NC(=O)C3NC(=O)C(CC(N)=O)NC(=O)C(NC(=O)C(CC(C)C)NC)C(O)c4ccc(c(Cl)c4)Oc4cc3cc(c4OC3OC(CO)C(O)C(O)C3OC3CC(C)(N)C(O)C(C)O3)Oc3ccc(cc3Cl)C2O)c2ccc(O)c(c2)-c2c(O)cc(O)cc21)NC(=O)C(CCCCN)NC(=O)C(CCCCN)NC(=O)c1ccc(Oc2ccc(Cl)cc2)cc1 (stereo not drawn) [MCC_000516]
xxxx (xxxx = 0.01-<0.1) | xxxxxx | xxx (xxx = 0.1-<1) | CNC(=O)C(CCCCNC(=O)C1NC(=O)C2NC(=O)C(NC(=O)C3NC(=O)C(CC(N)=O)NC(=O)C(NC(=O)C(CC(C)C)NC)C(O)c4ccc(c(Cl)c4)Oc4cc3cc(c4OC3OC(CO)C(O)C(O)C3OC3CC(C)(N)C(O)C(C)O3)Oc3ccc(cc3Cl)C2O)c2ccc(O)c(c2)-c2c(O)cc(O)cc21)NC(=O)C(CCCCN)NC(=O)C(CCCCNC(=O)c1ccc(Oc2ccc(Cl)cc2)cc1)NC(=O)c1ccc(Oc2ccc(Cl)cc2)cc1 (stereo not drawn) [MCC_000517]

Source: US10947271B2, “Antibacterial agents” (THE UNIVERSITY OF QUEENSLAND, priority 2014, dated 2021)
